Results on 52 sequences are retold here after the supplement of paper PMC11208160.
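Also: IS621 bridge recombinase in Escherichia coli cells against a fixed T5 target plasmid.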

The series is described as follows: recombinant UMI read abundance after kanamycin selection (control-corrected) (log10(CPM+1)); higher = more efficient recombination; extreme values may be limits of the assay; sequences stand for … in AGTGCAGAGAAAATCGGCCAGTTTTCTCTGCCTGCAGTCCGCATGCCGTGGGACCCCTTGGGTTCTAACCTGTTGCCTAGATTTATGCAGCGGACTGCCTTTCTCCCAAAGTGATAAACCGG…AGGTTGGTTTCACT; site = the 11-nt donor. A digest of the protocol: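 Two replicates each of selected and unselected plating were used in this pooled Escherichia coli screen of donor and donor-binding-loop pairs for the IS621 bridge recombinase. Selection was with IPTG (0.07 mM) and kanamycin. Counts of recombinant UMIs, amplified across the donor–target junction, were converted to CPM, averaged, scaled by control-derived factors and reported as log10(CPM+1).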
Consider “TGTACGCCATGGACCGGTTTTCCCGGTAATCCGTATTTGAC (site TGTACGCCTGT)”, for which the “recombinant UMI read abundance (log10)” value is 0.
On to “TGTACGCCATGGACCGGTTTTCCCGGTAATCCGTATTTGAC (site TGTACTCCTGT)”, for which the “recombinant UMI read abundance (log10)” value is 0.
As for “TGTACGCCATGGACCGGTTTTCCCGGTAATCCGTATTTGTA (site TGTACGCCTTA)”, the “recombinant UMI read abundance (log10)” value was determined as 0.00598.
“TGTACTGCATGGACCGGTTTTCCCGGTAATCCGTATTTGCC (site TGTACTGCTGG)”: the “recombinant UMI read abundance (log10)” value stood at 0.865.
With “TGTACTTCATGGACCGGTTTTCCCGGTAATCCGTATTTGGT (site TGTACTTCTAC)”, the “recombinant UMI read abundance (log10)” value turned out to be 1.38.
Regarding “TGTAGTGCATGGACCGGTTTTCCCGGTAATCCGTATTTGCC (site TGTAGTGCTGG)”, the “recombinant UMI read abundance (log10)” value was determined as 1.56.
As to “TGTAGTGCATGGACCGGTTTTCCCGGTAATCCGTATTTGCT (site TGTAGTGCTAG)”, the “recombinant UMI read abundance (log10)” value was determined as 1.16.
Take “TGTATCACATGGACCGGTTTTCCCGGTAATCCGTATTTGAA (site TGTATCACTTT)”: the “recombinant UMI read abundance (log10)” value turned out to be 0.00408.
For the sequence “TGTATCTCATGGACCGGTTTTCCCGGTAATCCGTATTTGGG (site TGTATCTCTCC)”, the “recombinant UMI read abundance (log10)” value was found to be 0.0516.
In the case of “TGTATGGCATGGACCGGTTTTCCCGGTAATCCGTATTTGAC (site TGTATGGCTGT)”, the “recombinant UMI read abundance (log10)” value came out at 1.25.
“TGTCACCCATGGACCGGTTTTCCCGGTAATCCGTATTTGGC (site TGTCACCCTGC)”: the “recombinant UMI read abundance (log10)” value was 0.
On to “TGTCCAACATGGACCGGTTTTCCCGGTAATCCGTATTTGTA (site AGTCCAACTTA)”, for which the “recombinant UMI read abundance (log10)” value was determined as 0.0568.
As for “TGTCCAACATGGACCGGTTTTCCCGGTAATCCGTATTTGTA (site CGTCCAACTTA)”, the “recombinant UMI read abundance (log10)” value amounted to 0.338.
Consider “TGTCCAACATGGACCGGTTTTCCCGGTAATCCGTATTTGTA (site GGTCCAACTTA)”, for which the “recombinant UMI read abundance (log10)” value worked out at 0.0289.
Take “TGTCCAACATGGACCGGTTTTCCCGGTAATCCGTATTTGTA (site TGTCCAACTTA)”: the “recombinant UMI read abundance (log10)” value was 0.208.
In the case of “TGTCCGGCATGGACCGGTTTTCCCGGTAATCCGTATTTGGC (site TGACCGGCTGC)”, the “recombinant UMI read abundance (log10)” value came out at 0.
Regarding “TGTCCGGCATGGACCGGTTTTCCCGGTAATCCGTATTTGGC (site TGCCCGGCTGC)”, the “recombinant UMI read abundance (log10)” value stood at 0.
Then “TGTCCGGCATGGACCGGTTTTCCCGGTAATCCGTATTTGGC (site TGGCCGGCTGC)”, with 0.
As for “TGTCCGGCATGGACCGGTTTTCCCGGTAATCCGTATTTGGC (site TGTCCGGCTGC)”, the figure is 0.541; as for “TGTCGAGCATGGACCGGTTTTCCCGGTAATCCGTATTTGTA (site TGTCGAGCTTA)”, 0.92.
Take “TGTCTACCATGGACCGGTTTTCCCGGTAATCCGTATTTGCG (site TGTCTACCTCG)”: the “recombinant UMI read abundance (log10)” value turned out to be 0.0129.
Then “TGTCTTGCATGGACCGGTTTTCCCGGTAATCCGTATTTGGG (site TGTCTTGCTCC)”, with 0.016; and “TGTGAATCATGGACCGGTTTTCCCGGTAATCCGTATTTGTC (site TGTGAATCTGA)”, with 0.782; and “TGTGCCACATGGACCGGTTTTCCCGGTAATCCGTATTTGTT (site TGTGCCACTAA)”, with 0.0457.
As for “TGTGCGGCATGGACCGGTTTTCCCGGTAATCCGTATTTGCT (site TATGCGGCTAG)”, the figure is 0.00771; as for “TGTGCGGCATGGACCGGTTTTCCCGGTAATCCGTATTTGCT (site TCTGCGGCTAG)”, 0.00448.
In the case of “TGTGCGGCATGGACCGGTTTTCCCGGTAATCCGTATTTGCT (site TGTGCGGCTAG)”, the “recombinant UMI read abundance (log10)” value was found to be 0.57.
Take “TGTGCGGCATGGACCGGTTTTCCCGGTAATCCGTATTTGCT (site TTTGCGGCTAG)”: the “recombinant UMI read abundance (log10)” value came out at 0.00385.
For the sequence “TGTGGTCCATGGACCGGTTTTCCCGGTAATCCGTATTTGTC (site TGTGGTCCTGA)”, the “recombinant UMI read abundance (log10)” value turned out to be 0.
As to “TGTTACCCATGGACCGGTTTTCCCGGTAATCCGTATTTGTA (site TGTTACCCTTA)”, the “recombinant UMI read abundance (log10)” value amounted to 0.0142.
Consider “TGTTACCCATGGACCGGTTTTCCCGGTAATCCGTATTTGTA (site TGTTCCCCTTA)”, for which the “recombinant UMI read abundance (log10)” value worked out at 0.0074.
Then “TGTTACCCATGGACCGGTTTTCCCGGTAATCCGTATTTGTA (site TGTTGCCCTTA)”, with 0.0124; and “TGTTACCCATGGACCGGTTTTCCCGGTAATCCGTATTTGTA (site TGTTTCCCTTA)”, with 0; and “TGTTAGCCATGGACCGGTTTTCCCGGTAATCCGTATTTGAC (site TGTTAGCCTGT)”, with 0.
Then “TGTTCCCCATGGACCGGTTTTCCCGGTAATCCGTATTTGCA (site TGTTCCCCTTA)”, with 0.0177.
Consider “TGTTCCCCATGGACCGGTTTTCCCGGTAATCCGTATTTGCA (site TGTTCCCCTTC)”, for which the “recombinant UMI read abundance (log10)” value was 0.0115.
Turning to “TGTTCCCCATGGACCGGTTTTCCCGGTAATCCGTATTTGCA (site TGTTCCCCTTG)”, the “recombinant UMI read abundance (log10)” value was 0.256.
In the case of “TGTTCCCCATGGACCGGTTTTCCCGGTAATCCGTATTTGCA (site TGTTCCCCTTT)”, the “recombinant UMI read abundance (log10)” value worked out at 0.0133.
Consider “TGTTCCCCATGGACCGGTTTTCCCGGTAATCCGTATTTGTA (site AGTTCCCCTTA)”, for which the “recombinant UMI read abundance (log10)” value came out at 0.355.
For the sequence “TGTTCCCCATGGACCGGTTTTCCCGGTAATCCGTATTTGTA (site CGTTCCCCTTA)”, the “recombinant UMI read abundance (log10)” value turned out to be 0.193.
Then “TGTTCCCCATGGACCGGTTTTCCCGGTAATCCGTATTTGTA (site GGTTCCCCTTA)”, with 0.00981; and “TGTTCCCCATGGACCGGTTTTCCCGGTAATCCGTATTTGTA (site TATTCCCCTTA)”, with 0.0123; and “TGTTCCCCATGGACCGGTTTTCCCGGTAATCCGTATTTGTA (site TCTTCCCCTTA)”, with 0.0139.
In the case of “TGTTCCCCATGGACCGGTTTTCCCGGTAATCCGTATTTGTA (site TGATCCCCTTA)”, the “recombinant UMI read abundance (log10)” value amounted to 0.0165.
Then “TGTTCCCCATGGACCGGTTTTCCCGGTAATCCGTATTTGTA (site TGCTCCCCTTA)”, with 0.377; and “TGTTCCCCATGGACCGGTTTTCCCGGTAATCCGTATTTGTA (site TGGTCCCCTTA)”, with 0.
On to “TGTTCCCCATGGACCGGTTTTCCCGGTAATCCGTATTTGTA (site TGTACCCCTTA)”, for which the “recombinant UMI read abundance (log10)” value is 0.0227.
Consider “TGTTCCCCATGGACCGGTTTTCCCGGTAATCCGTATTTGTA (site TGTCCCCCTTA)”, for which the “recombinant UMI read abundance (log10)” value was 0.136.
On to “TGTTCCCCATGGACCGGTTTTCCCGGTAATCCGTATTTGTA (site TGTGCCCCTTA)”, for which the “recombinant UMI read abundance (log10)” value was 0.013.
As to “TGTTCCCCATGGACCGGTTTTCCCGGTAATCCGTATTTGTA (site TGTTACCCTTA)”, the “recombinant UMI read abundance (log10)” value was determined as 0.177.
In the case of “TGTTCCCCATGGACCGGTTTTCCCGGTAATCCGTATTTGTA (site TGTTCACCTTA)”, the “recombinant UMI read abundance (log10)” value was determined as 0.00592.
Regarding “TGTTCCCCATGGACCGGTTTTCCCGGTAATCCGTATTTGTA (site TGTTCCACTTA)”, the “recombinant UMI read abundance (log10)” value was 0.0238.
